Common to all, as to type: cell-based
One series has as its system A549 cells. Briefly: FACS binding analysis of CPP conjugated liposomes. To be noted: FAM-CPP conjugated to hyaluronan coated liposomes, 30 minutes on ice. As for the experimental part: Liposome preparation was carried out as described in Peer D., at al., 2008, Science 319, 627-630, Briefly, liposomes (60% soy-pc, 20% DPPE 20% cholesterol mol/mol) were prepared at a concentration of 40 mg/ml (Soy PC-273 mg, DPPE-81.2 mg Cholesterol-145.4 mg in 10 ml of ethanol). After a complete dissolvent, the solution was evaporated in a rotary evaporator (BUCHI R-210). Following the evaporation the dry lipid film was hydrated in 10 ml of HEPES (PH 7.4) and the solution was shaken (2 hr 65° C.). The MLV were reduced to ULV with an average size of ˜150 nm (Zetasizer Nano ZS system) by passing them through an extruder (Lipex) using filtration membranes in a serially manner ([…]). Average zeta potential of the ULV was −3 mV (Zetasizer Nano ZS system).
Hyaluronan (HA) (700 KDa Lifecore) was dissolved in 0.2M MES buffer (PH 5.5) to a final concentration of 5 mg/ml. HA was activate with EDC and solfo-NHS at a molar ratio of 1:1:6. After 30 min of activation the liposomes were added and the pH was adjusted to 7.4. The solution was incubated at room temp (2 hr). The free HA was removed by 3 repeated ultracentrifugations. The resulting HA-ULV's were at an average of 175 nm in size.
CPPs S22 (SEQ ID NO: 1), S24 (SEQ ID NO: 2) and S8 (SEQ ID NO: 6) and Control CPPs; 9R with additional C-terminal Lysine, 9R-K (SEQ ID NO: 40) and N2 (SEQ ID NO: 22), were dissolved to a concentration of 1 mg/ml. HA-ULV's (250 μl of 40 mg/ml) were activated with 1 ml of 0.4M EDC and 1 ml of 0.4 mM solfo-NHS. After 30 min the activated liposomes were divided into 5 test tubes (250 μl per each tube) and a different CPP (50 μl) was added. After incubation at RT for 2 hr, the CPP-HA-ULVS were dialyzed over night with PBS buffer (0.5 L/3 buffer changeovers) to remove unbound CPP, using dialysis bags with a cutoff 3500 Da.
For binding analysis, 3.5×10^5 cells were trypsinized, spin down, re-suspended with FACS buffer (1% fetal bovine serum in 1×PBS), incubated for 30 minutes on ice with different CPPs (Conjugated to FAM fluorophore) and washed with 1 ml FACS buffer.

Another series relates to A549 cell line. Put plainly: Internalization assay of CPP conjugated liposomes by confocal microscopy. To be noted: CPP conjugated to liposomes, 50 μl, 1 hour, 37° C. As for the experimental part: (§1) Internalization assay was performed in 24 well plates. A549 or NRK cells were seeded on cover slips in RPMI or DMEM medium respectively, supplemented with antibiotics, L-Glutamine and 10% fetal calf serum (Biological industries, Beit Haemek).
(§2) For membrane staining, cells were stained with CellTracker™ DilC18 (5)-DS solution (Invitrogen, Carlsbad, Calif., USA), diluted 1:5000 with PBS. For internalization experiments involve NPs Concanavalin A, Alexa fluor 647 conjugate (10 μg/ml) (C21421, Invitrogen,) was used to label cell membrane. For nuclei staining, cells were stained with Hoechst (1:10,000 in PBS) (33258, Sigma). Cells were exposed to CPPs only (10 μM) or CPP-liposome complex (50 μl from stock, according to preparation method) or liposome only (50 μl from the prepared liposomal stock solution) in medium without serum for a period of 1 hour at 37° C. in a humidified atmosphere with 5% CO2. Subsequently, the cells were washed twice using cold PBS, fixated with 4% Paraformaldehyde (PFA) and washed again with cold PBS. Membrane and nuclei staining were preformed after fixation. The cells were mounted by fluorescent mounting medium (Golden Bridge international, Mukilteo, Wash., USA) and fluorescent was measured using Andor Spinning disc confocal microscope and the Meta 510 Zeiss LSM confocal microscope. Laser beams at 405, 488, 561 and 650 nm were used for UV, FAM, Rhodamine, Concavaline A and CellTracker™, fluorophores excitation respectively. Serial optical sections of the cells were recorded for each treatment and the images were processed using Zeiss LSM Image browser software.

Series [1] deals with HeLa cells. Put plainly: Flow cytometry (FACS) quantification of cellular uptake of FAM labeled peptides. The following applies: FAM labeled peptide, 10 uM, 37° C., 1 hour, average of a number of experiments. As for the experimental part:
To determine the efficiency of peptide loading, HeLa cells (ATCC number CCL-2TM (Manassas, Va.) grown in DMEM medium with stabilized glutamine supplemented with 10% fetal calf serum (Biological Industries, Beit Haemek, Israel), were seeded at a density of 20,000 per well in 96 U shape-well plates (Nunc A/S, Roskilde, Denmark) in serum containing DMEM (D-Mem W/O Na Pyr, product number 41965039).
After 24 hours, the cells were washed twice with 300 μL serum free OptiMEM (Reduced Serum Media, buffered with HEPES and sodium bicarbonate and supplemented with hypoxanthine, thymidine, sodium pyruvate, L-glutamine, trace elements and growth factors) medium and incubated in 50 μL serum free OptiMEM, containing peptides in the appropriate concentrations for 1 hour at 37° C. Each condition was tested in triplicates. After incubation, cells were washed with serum free medium, detached by trypsinization for 5 minutes, suspended in ice-cold PBS (phosphate buffered saline) containing 0.1% (w/v) BSA (bovine serum albumin), and measured immediately by flow cytometry (BD FACS Calibur System, Becton Dickinson, Heidelberg, Germany). The fluorescence of approximately 10,000 vital cells was acquired and gated based on sideward and forward scatter. Peptides used as positive controls were Tat(47-57) (SEQ ID NO:19; Jain M, et al., Cancer Res. 2005 Sep. 1; 65(17):7840-6), 9R (SEQ ID NO:21; Mueller J, et al., Bioconjug Chem. 2008 December; 19(12):2363-74) and penetratin (SEQ ID NO:20; Mueller J, et al., Bioconjug Chem. 2008 December; 19(12):2363-74). Negative control peptides N2 (SEQ ID NO:22) and N5 (SEQ ID NO:23) were designed according to Handbook [Cell-Penetrating Peptides, Second Edition, Edited by Ülo Langel, CRC Press 2007, Print ISBN: 978-0-8493-5090-0] and [US Patent Application 20080234183].

Series [2] has as its system HeLa cells. Briefly: Confocal microscopy of peptide membrane penetration and cellular distribution. The following applies: 5 uM, 37° C. As for the experimental part: To determine qualitative validation of peptide membrane penetration, HeLa cells from 5 ml of confluent T75 flask were seed in 12 well plate at 10×10^4 cells/mL in 0.5 ml DMEM supplied with 10% Fetal Calf Serum. […] DiD (DiD-[1,1′-Dioctadecyl-3,3,3′,3′-tetramethylindodicarbocyanine iodide] Lipophilic membrane tracer) (5 ug/ml) was added to each well and incubated for 5 min at 4° C., washed twice with cold PBS and fixed with 3.7% PFA 20′ RT. Cells were rinsed with PBS and mounted on slides for confocal microscopy analysis.

A further series relates to NRK cell line. Briefly: Internalization assay of CPP conjugated liposomes by confocal microscopy. The following applies: CPP conjugated to liposomes, 50 μl, 1 hour, 37° C. As for the experimental part: as §1, §2
Series [3] is described as follows: In vitro cytotoxicity by LDH (lactate dehydrogenase) analysis. To be noted: human. As for the experimental part: In order to assess the in vitro cytotoxicity of the peptides, an LDH (lactate dehydrogenase) analysis was carried out, using LDH kit (Promega G1782), according to manufacturer instructions.
Briefly, HeLa cells from 5 ml of confluent T75 flask were seed in 96 well plate at 10×10^4 cells/mL in 0.1 ml DMEM supplied with 10% Fetal Calf Serum. After 24 hrs incubation with growth medium, wells were replaced with Serum Free growth medium for 24 hrs, and then cells were washed with OptiMEM and replaced with 0.1 ml peptide solution at 10 uM for 1 h at 37° C. 50 ul of supernatant were transferred to the new plate and detected according to Cyto Tox 96, Non Radioactive cytotoxicity assay, (LDH kit Promega G1782). Table 5 presents the results of in vitro cytotoxicity measurements by LDH for S22, S24, S36 and S40 peptides and two positive control peptides; Tat(47-57) and R9. LDH experiment was done with fluorescent labeled (5-FAM) peptides in concentration of […] and the % of cytotoxicity was measured by LDH levels.

Entries after “also recorded” stand apart in the source; their conditions may differ. Peptide text beside a SMILES is read from it. * marks the point of attachment. 5FAM = O=C1OC2(c3ccc(O)cc3Oc3cc(O)ccc32)c2ccc(C(=O)*)cc21; FAM = carboxyfluorescein

For the compound “VATIKSVSFYTRK [N2, negative control peptide, reference compound]”, in the series on A549 cells, the “binding to A549 cells (FACS)” value is “lower binding effect”. For the same compound, the “internalization into A549 cell line (confocal)” value with A549 cell line is given as “did not show internalization effect”.
In the case of `CC[C@H](C)[C@H](NC(=O)[C@H](CCCNC(=N)N)NC(=O)[C@H](CCCNC(=N)N)NC(=O)[C@H](CS)NC(=O)[C@@H](NC(=O)[C@H](CCCCN)NC(=O)[C@H](CCCCN)NC(=O)c1ccc2c(c1)C(=O)OC21c2ccc(O)cc2Oc2cc(O)ccc21)[C@@H](C)O)C(=O)N[C@@H](CC(N)=O)C(=O)N[C@@H](Cc1ccc(O)cc1)C(=O)N[C@@H](CS)C(=O)N[C@@H](C)C(=O)N[C@@H](CC(C)C)C(=O)N[C@@H](CC(N)=O)C(=O)N[C@@H](CCCCN)C(N)=O` [S22, KKTCRRINYCALNK] (5FAM-KKTCRRINYCALNK-NH2; N-terminus and C-terminus assumed), in the series on HeLa cells [1], the “Geometric mean of FL1 intensity” value turned out to be 206.4275. Further, the “accumulation of FAM labeled peptide inside the cell (confocal images)” value in the series on HeLa cells [2] is “strong cell membrane penetration capability; also recorded: efficient cellular uptake and intracellular accumulation”. The “binding to A549 cells (FACS)” value with A549 cells is recorded as “high binding levels”. Further, the “internalization into NRK cell line (confocal)” value in the series on NRK cell line is listed as “weak internalization; also recorded: better penetration into NRK in a comparison with peptide only”. Moreover, the “internalization into A549 cell line (confocal)” value in the series on A549 cell line was “significant internalization effect”. Also, the cytotoxicity at 1 h, 10 µM in series [3] was determined as 7%.
Turning to “RRRRRRRRRK [9R-K, positive control, 9R with additional C-terminal Lysine, reference compound]”, the “binding to A549 cells (FACS)” value with A549 cells is “high binding levels”.
Consider “KKLALYLLLAL ({FAM}-KKLALYLLLAL-NH2) [S67]”, for which, in the series on HeLa cells [1], the “Geometric mean of FL1 intensity” value came out at 27.9.
As to KPSARMLLLKGFGK [S8], the “Geometric mean of FL1 intensity” value with HeLa cells [1] worked out at 52.29. Besides, in the series with A549 cells, the “binding to A549 cells (FACS)” value is “lower binding effect”. For the same compound, in the series with NRK cell line, the “internalization into NRK cell line (confocal)” value is reported as “weak internalization”.

Source of the values: patent US20140056811A1, “NEW CELL-PENETRATING PEPTIDES AND USES THEREOF” (COMPUGEN LTD., priority 2010, published 2014).
